Source: the supplement of paper PMC10307832

What was measured:
Assay in all cases: relative viability (nuclei count vs DMSO), 5 days (fraction); higher = more cells survive
NCI-H2126 = tested on: NCI-H2126
How it was run: (§1)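 Relative viability divides the nuclei count in treated wells by that in vehicle wells. Lung cancer cell lines were seeded in 1536-well plates, dosed by pin tool the next day, and fixed and stained after 5 days in one step with final 0.05% Triton X-100, 1% formaldehyde and 1 ug/ml Hoechst. Dosing was a single drug or a fixed anchor-drug dose plus five library-drug doses (not always all listed) in √10 steps, and values are medians of duplicate plates imaged at 4×.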

NCI-H1755 = tested on: NCI-H1755
How it was run: as §1

NCI-H2170 = tested on: NCI-H2170
How it was run: as §1

SK-MES-1 = tested on: SK-MES-1
How it was run: as §1

ChaGo-K-1 = tested on: ChaGo-K-1
How it was run: as §1

LXF-289 = tested on: LXF-289
How it was run: as §1

NCI-H2087 = tested on: NCI-H2087
How it was run: as §1

ABC-1 = tested on: ABC-1
How it was run: as §1

201T = tested on: 201T
How it was run: as §1

NCI-H322M = tested on: NCI-H322M
How it was run: as §1

EMC-BAC-2 = tested on: EMC-BAC-2
How it was run: as §1

NCI-H1734 = tested on: NCI-H1734
How it was run: as §1

NCI-H3122 = tested on: NCI-H3122
How it was run: as §1

NCI-H1651 = tested on: NCI-H1651
How it was run: as §1

NCI-H596 = tested on: NCI-H596
How it was run: as §1

NCI-H441 = tested on: NCI-H441
How it was run: as §1

PC-14 = tested on: PC-14
How it was run: as §1

NCI-H2009 = tested on: NCI-H2009
How it was run: as §1

HOP-62 = tested on: HOP-62
How it was run: as §1

LK-2 = tested on: LK-2
How it was run: as §1

H3255 = tested on: H3255
How it was run: as §1

NCI-H647 = tested on: NCI-H647
How it was run: as §1

Cc1cnc(-c2cnc(NCCNc3ccc(C#N)cn3)nc2-c2ccc(Cl)cc2Cl)[nH]1 + Nc1ncn([C@H]2C[C@H](O)[C@@H](CO)O2)c(=O)n1 [Decitabine] (partner 2 µM) was tested, and the relative viability (NCI-H2126; first compound 0.08 µM) was 0.585, the relative viability (NCI-H2126; first compound 0.253 µM) was 0.602 and the relative viability (NCI-H2126; first compound 0.8 µM) was 0.539. For the same compound, the relative viability (NCI-H2126; first compound 2.53 µM) was 0.58, the relative viability (NCI-H1755; first compound 0.08 µM) was 0.723 and the relative viability (NCI-H1755; first compound 0.253 µM) was 0.726. The relative viability (NCI-H1755; first compound 0.8 µM) was 0.771, the relative viability (NCI-H1755; first compound 2.53 µM) was 0.704 and the relative viability (NCI-H2170; first compound 0.08 µM) was 0.481. The relative viability (NCI-H2170; first compound 0.8 µM) was 0.484, the relative viability (NCI-H2170; first compound 2.53 µM) was 0.406 and the relative viability (SK-MES-1; first compound 0.08 µM) was 0.378. The relative viability (SK-MES-1; first compound 0.253 µM) was 0.35, the relative viability (SK-MES-1; first compound 0.8 µM) was 0.393 and the relative viability (SK-MES-1; first compound 2.53 µM) was 0.406. It also gave a relative viability (ChaGo-K-1; first compound 0.08 µM) of 0.546, a relative viability (ChaGo-K-1; first compound 0.253 µM) of 0.485 and a relative viability (ChaGo-K-1; first compound 0.8 µM) of 0.499. The relative viability (ChaGo-K-1; first compound 2.53 µM) was 0.466, the relative viability (LXF-289; first compound 0.08 µM) was 0.374 and the relative viability (LXF-289; first compound 0.253 µM) was 0.364. The relative viability (LXF-289; first compound 0.8 µM) was 0.392, the relative viability (LXF-289; first compound 2.53 µM) was 0.398 and the relative viability (NCI-H2087; first compound 0.08 µM) was 0.282. The relative viability (NCI-H2087; first compound 0.8 µM) was 0.286, the relative viability (NCI-H2087; first compound 2.53 µM) was 0.204 and the relative viability (ABC-1; first compound 0.08 µM) was 1.27. The relative viability (ABC-1; first compound 0.253 µM) was 0.871, the relative viability (ABC-1; first compound 0.8 µM) was 1.08 and the relative viability (ABC-1; first compound 2.53 µM) was 0.918. For the same compound, the relative viability (201T; first compound 0.08 µM) was 0.817, the relative viability (201T; first compound 0.8 µM) was 0.828 and the relative viability (201T; first compound 2.53 µM) was 0.849. The relative viability (NCI-H322M; first compound 0.08 µM) was 0.654, the relative viability (NCI-H322M; first compound 0.253 µM) was 0.655 and the relative viability (NCI-H322M; first compound 0.8 µM) was 0.567. It also gave a relative viability (NCI-H322M; first compound 2.53 µM) of 0.726, a relative viability (EMC-BAC-2; first compound 0.08 µM) of 1.15 and a relative viability (EMC-BAC-2; first compound 0.253 µM) of 0.911. For the same compound, the relative viability (EMC-BAC-2; first compound 0.8 µM) was 0.912, the relative viability (EMC-BAC-2; first compound 2.53 µM) was 0.995 and the relative viability (NCI-H1734; first compound 0.08 µM) was 0.514. The relative viability (NCI-H1734; first compound 0.253 µM) was 0.453, the relative viability (NCI-H1734; first compound 0.8 µM) was 0.544 and the relative viability (NCI-H1734; first compound 2.53 µM) was 0.567. For the same compound, the relative viability (NCI-H3122; first compound 0.08 µM) was 0.461, the relative viability (NCI-H3122; first compound 0.8 µM) was 0.461 and the relative viability (NCI-H3122; first compound 2.53 µM) was 0.386. For the same compound, the relative viability (NCI-H1651; first compound 0.08 µM) was 0.626, the relative viability (NCI-H1651; first compound 0.253 µM) was 0.523 and the relative viability (NCI-H1651; first compound 0.8 µM) was 0.587. The relative viability (NCI-H1651; first compound 2.53 µM) was 0.625, the relative viability (NCI-H596; first compound 0.08 µM) was 1.08 and the relative viability (NCI-H596; first compound 0.253 µM) was 0.995. It also gave a relative viability (NCI-H596; first compound 0.8 µM) of 1.03, a relative viability (NCI-H596; first compound 2.53 µM) of 1.07 and a relative viability (NCI-H441; first compound 0.08 µM) of 0.238. For the same compound, the relative viability (NCI-H441; first compound 0.8 µM) was 0.251, the relative viability (NCI-H441; first compound 2.53 µM) was 0.255 and the relative viability (PC-14; first compound 0.08 µM) was 0.232. The relative viability (PC-14; first compound 0.253 µM) was 0.171, the relative viability (PC-14; first compound 0.8 µM) was 0.217 and the relative viability (PC-14; first compound 2.53 µM) was 0.234. For the same compound, the relative viability (NCI-H2009; first compound 0.08 µM) was 0.426, the relative viability (NCI-H2009; first compound 0.253 µM) was 0.37 and the relative viability (NCI-H2009; first compound 0.8 µM) was 0.404. For the same compound, the relative viability (NCI-H2009; first compound 2.53 µM) was 0.395, the relative viability (HOP-62; first compound 0.08 µM) was 0.204 and the relative viability (HOP-62; first compound 0.253 µM) was 0.226. For the same compound, the relative viability (HOP-62; first compound 0.8 µM) was 0.236, the relative viability (HOP-62; first compound 2.53 µM) was 0.174 and the relative viability (LK-2; first compound 0.08 µM) was 0.27. It also gave a relative viability (LK-2; first compound 0.253 µM) of 0.275, a relative viability (LK-2; first compound 0.8 µM) of 0.323 and a relative viability (LK-2; first compound 2.53 µM) of 0.395. For the same compound, the relative viability (H3255; first compound 0.08 µM) was 0.765, the relative viability (H3255; first compound 0.253 µM) was 0.531 and the relative viability (H3255; first compound 0.8 µM) was 0.551. It also gave a relative viability (H3255; first compound 2.53 µM) of 0.567, a relative viability (NCI-H647; first compound 0.08 µM) of 0.381 and a relative viability (NCI-H647; first compound 0.253 µM) of 0.36. For the same compound, the relative viability (NCI-H647; first compound 0.8 µM) was 0.349 and the relative viability (NCI-H647; first compound 2.53 µM) was 0.297.
